Series [1] is described as follows: pKa value was evaluated. The series is classed as physicochemical.
Series [2] addresses T1, Melanocortin receptor 4 (Homo sapiens, UniProt P32245). Description: Agonist potency towards human Melanocortin 4 receptor. It is filed as functional.
For series [3], the target named is T2, Melanocyte-stimulating hormone receptor (Homo sapiens, UniProt Q01726). Description: Agonist potency for human Melanocortin 1 receptor. It is filed as functional.
Target sequence in this assay (Q01726 whole entry): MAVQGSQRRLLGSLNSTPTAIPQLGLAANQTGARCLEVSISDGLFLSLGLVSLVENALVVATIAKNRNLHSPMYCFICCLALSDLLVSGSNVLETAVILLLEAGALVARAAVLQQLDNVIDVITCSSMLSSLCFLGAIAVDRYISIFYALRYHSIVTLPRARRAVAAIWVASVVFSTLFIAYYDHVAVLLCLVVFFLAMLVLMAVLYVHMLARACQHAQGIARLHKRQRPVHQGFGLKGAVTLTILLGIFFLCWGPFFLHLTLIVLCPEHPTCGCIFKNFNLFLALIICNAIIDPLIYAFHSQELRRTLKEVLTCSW
Series [4] addresses T1, Melanocortin receptor 4. Put plainly: Agonist potency towards human Melanocortin 4 receptor at 50 uM. The series is classed as functional.
The target in series [5] is T2, Melanocyte-stimulating hormone receptor. Put plainly: Agonist potency towards human Melanocortin 1 receptor at 50 uM. It is filed as functional.
Target sequence in this assay (Q01726 whole entry, looked up): as the sequence (Q01726 whole entry) above

T1 sequence (P32245 whole entry): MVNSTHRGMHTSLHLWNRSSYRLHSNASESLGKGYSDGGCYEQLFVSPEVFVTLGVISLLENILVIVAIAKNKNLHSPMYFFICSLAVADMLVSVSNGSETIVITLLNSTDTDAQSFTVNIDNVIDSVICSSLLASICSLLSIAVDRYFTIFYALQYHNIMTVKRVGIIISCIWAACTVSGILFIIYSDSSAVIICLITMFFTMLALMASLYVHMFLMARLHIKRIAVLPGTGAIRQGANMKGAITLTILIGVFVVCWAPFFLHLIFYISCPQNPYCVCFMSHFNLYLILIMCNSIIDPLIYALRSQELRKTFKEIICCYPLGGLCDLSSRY

In series [1], `CCCCN[C@@H](Cc1cnc[nH]1)C(=O)N[C@H](Cc1ccccc1)C(=O)N[C@@H](CCCNC(N)=NC#N)C(=O)N[C@@H](Cc1c[nH]c2ccccc12)C(=O)NCC(N)=O` registered a pKa of approximately 0. The EC50 at Melanocortin receptor 4 [2] turned out to be 70 nM; in series [3], 15 nM.
Turning to `CCCCN[C@@H](Cc1cnc[nH]1)C(=O)N[C@H](Cc1ccccc1)C(=O)N[C@@H](CCCNC(=N)N)C(=O)N[C@@H](Cc1c[nH]c2ccccc12)C(=O)NCC(N)=O`, the 50% effective concentration (EC50) amounted to 20 nM at Melanocortin receptor 4 [2] and 10 nM in series [3].
For the compound `CCCCN[C@@H](Cc1c[nH]cn1)C(=O)N[C@H](Cc1ccccc1)C(=O)N[C@@H](CCCN)C(=O)N[C@@H](Cc1c[nH]c2ccccc12)C(=O)NCC(N)=O`, the EC50 on Melanocortin receptor 4 [2] was 2500 nM; in series [3] it was 900 nM.
The corresponding values for `CCCCN[C@@H](Cc1c[nH]cn1)C(=O)N[C@H](Cc1ccccc1)C(=O)N[C@@H](CCCCN(C)C)C(=O)N[C@@H](Cc1c[nH]c2ccccc12)C(=O)NCC(N)=O` are 1670 nM and 60 nM.
For `CCCCN[C@@H](Cc1c[nH]cn1)C(=O)N[C@H](Cc1ccccc1)C(=O)N[C@@H](CCCCNC(C)C)C(=O)N[C@@H](Cc1c[nH]c2ccccc12)C(=O)NCC(N)=O`, the Activity at Melanocortin receptor 4 [4] amounted to 25%. In addition, in series [3], a half-maximal effect (EC50) was put at 255 nM.
On to `CCCCN[C@@H](Cc1c[nH]cn1)C(=O)N[C@H](Cc1ccccc1)C(=O)N[C@@H](Cc1c[nH]cn1)C(=O)N[C@@H](Cc1c[nH]c2ccccc12)C(=O)NCC(N)=O`, for which the EC50 at Melanocortin receptor 4 [2] worked out at 1420 nM; in series [3] it was 1700 nM.
`CCCCN[C@@H](Cc1c[nH]cn1)C(=O)N[C@H](Cc1ccccc1)C(=O)N[C@@H](CCC/N=C(/N)N[N+](=O)[O-])C(=O)N[C@@H](Cc1c[nH]c2ccccc12)C(=O)NCC(N)=O`: the Activity in series [5] was 40%; at Melanocortin receptor 4 [4], 85%.
As to `CCCCN[C@@H](Cc1cnc[nH]1)C(=O)N[C@H](Cc1ccccc1)C(=O)N[C@@H](CCCNC(N)=O)C(=O)N[C@@H](Cc1c[nH]c2ccccc12)C(=O)NCC(N)=O`, the EC50 was 760 nM on Melanocortin receptor 4 [2] and 950 nM in series [3].
Consider `CCCCN[C@@H](Cc1cnc[nH]1)C(=O)N[C@H](Cc1ccccc1)C(=O)N[C@@H](CCC(=O)NC(=N)N)C(=O)N[C@@H](Cc1c[nH]c2ccccc12)C(=O)NCC(N)=O`, for which the pKa in series [1] is approximately 7. Besides, the EC50 is 10 nM on Melanocortin receptor 4 [2] and 1 nM in series [3].
Consider `CCCCN[C@@H](Cc1cnc[nH]1)C(=O)N[C@H](Cc1ccccc1)C(=O)N[C@@H](CCCN(C)C)C(=O)N[C@@H](Cc1c[nH]c2ccccc12)C(=O)NCC(N)=O`, for which the EC50 on Melanocortin receptor 4 [2] was 3280 nM; in series [3], 350 nM.
The corresponding values for `CCCCN[C@@H](Cc1cnc[nH]1)C(=O)N[C@H](Cc1ccccc1)C(=O)N[C@@H](CCCCNCc1ccccc1)C(=O)N[C@@H](Cc1c[nH]c2ccccc12)C(=O)NCC(N)=O` are 4800 nM and 85 nM.

The values above are taken from ChEMBL document CHEMBL1135847, “Structure-activity relationship of linear peptide Bu-His-DPhe-Arg-Trp-Gly-NH(2) at the human melanocortin-1 and -4 receptors: arginine substitution” (Bioorg Med Chem Lett, 2002).
